Columns and labels:
mHTT protein = mHTT protein assay (2B7-MW1, Mesoscale Discovery); format: cell-based, human; conditions: GM04724 (CAG 70/20) Huntington's disease patient lymphoblast cells, 48 hours, 2B7-MW1 MSD; read-out: HTT Potency - Protein EC50 mHTT (average)
Protocol: Compounds are tested on GM04724 (CAG 70/20) Huntington's disease patient lymphoblast cells at doses ranging from 10 μM to 0.6 nM. 4,500 cells/well are seeded in 384 well plates. One plate replica is carried out for parallel viability testing by CellTiter Glo (CTG). Compounds are incubated for 48 hours, mHTT protein levels are assessed by the 2B7-MW1 assay via Mesoscale Discovery (MSD) as previously reported (Macdonald et al., 2014). The antibody pair is comprised of previously characterized monoclonals (2B7 and MW1) interrogating two regions for HTT conformation and biological properties: the N17 domain and the polyQ domain (Baldo et al., 2012; Ko et., 2001). 2B7-MW1 is dependent on subject/animal specific levels of HTT at the time of treatment. 2B7-MW1 is dependent on polyQ expansion (e.g., the higher the expansion the higher the signal) and on mHTT size (e.g., a similar polyQ will give higher signal with smaller HTT size). The viability readout is carried out by CTG according to the manufacturer's instructions.

MDR1 = assay: MDCK-MDR1 permeability assay (BBB penetration potential); format: in vitro ADME; conditions: dog; for efflux ratio at 120 min, 5 μM: MDCK-MDR1, pH 7.4, MDCK-MDR1: Efflux; for Papp A→B at 120 min, 5 μM: MDCK-MDR1, pH 7.4, MDCK-MDR1: Papp A-B; for Papp B→A at 120 min, 5 μM: MDCK-MDR1, pH 7.4, MDCK-MDR1: Papp B-A
Protocol: (§1) Each determination is performed in duplicate. […] Analytical conditions are outlined below.

[1] = system: MDR1-MDCK cell monolayers; assay: as above; format: in vitro ADME; conditions: dog, MDCK-MDR1, 120 min, 5 μM, pH 7.4
Protocol: as §1

| Structure (SMILES) | EC50 (mHTT protein) [nM] | efflux ratio at 120 min, 5 μM (MDR1) | Papp A→B at 120 min, 5 μM (MDR1) [×10⁻⁶ cm/s] | Papp B→A at 120 min, 5 μM (MDR1) [×10⁻⁶ cm/s] | MDCK-MDR1: % Recov A-B [1] [%] | MDCK-MDR1: % Recov B-A [1] [%] | MDCK-MDR1: Efflux [1] | MDCK-MDR1: Papp A-B [1] | MDCK-MDR1: Papp B-A [1] |
| --- | --- | --- | --- | --- | --- | --- | --- | --- | --- |
| Cc1nnc(-c2ccc(-c3ccc(O[C@@H]4C[C@H]5CCC[C@H](N5)[C@@H]4F)nn3)c(O)c2)s1 (single isomer, unassigned) [95-ENT1] | 101 to 500 | 10 | 4.88 | 48.8 | 72 | 78 |  |  |  |
| Cn1ccc(=O)c2cc(O)c(-c3ccc(O[C@H]4C[C@]5(C)CCC[C@@](C)(N5)[C@H]4F)nn3)cc21 (single isomer, unassigned) [132-ENT1] | 101 to 500 | 142 | 0.1 | 14.7 | 90 | 95 |  |  |  |
| Cc1cncc(-c2ccc(-c3ccc(O[C@@H]4C[C@H]5CCC[C@H](N5)[C@@H]4F)nn3)c(O)c2)n1 (single isomer, unassigned) [102-ENT1] | 101 to 500 | 6 | 7.66 | 43.1 | 89 | 90 |  |  |  |
| N#Cc1ccc(-c2ccc(O[C@H]3C[C@@H]4CCC[C@@H](N4)[C@H]3F)nn2)c(O)c1 (single isomer, unassigned) [110-ENT2] | 501 to 10000 | 8 | 7.44 | 56.9 | 95 | 97 |  |  |  |
| Cn1cnc(-c2ccc(-c3ccc(O[C@H]4C[C@@H]5CCC[C@@H](N5)[C@H]4F)nn3)c(O)c2)cc1=O (single isomer, unassigned) [138-ENT2] | 101 to 500 | 32 | 1.88 | 60.7 | 92 | 91 |  |  |  |
| Oc1cc(-n2ccnn2)ccc1-c1ccc(O[C@@H]2C[C@H]3CCC[C@H](N3)[C@@H]2F)nn1 (single isomer, unassigned) [69-ENT1] | 101 to 500 | 5 | 9.2 | 47.6 | 89 | 93 |  |  |  |
| Oc1cc(-n2cccn2)ccc1-c1ccc(O[C@@H]2C[C@H]3CC[C@H](N3)[C@@H]2F)nn1 (single isomer, unassigned) [35-ENT1] | 101 to 500 | 4 | 8.31 | 32.8 | 77 | 87 |  |  |  |
| Cn1cc(-c2ccc(-c3ccc(O[C@H]4C[C@]5(C)CC[C@@](C)(N5)[C@H]4F)nn3)c(O)c2)cn1 (single isomer, unassigned) [150-ENT1] | 51 to 100 | 4 | 7.55 | 27.9 | 77 | 85 |  |  |  |
| O=c1cc(-c2cc(O)c(-c3ccc(O[C@H]4C[C@@H]5CCC[C@@H](N5)[C@H]4F)nn3)cc2F)cc[nH]1 (single isomer, unassigned) [57-ENT2] | 101 to 500 | 90 | 0.35 | 31.3 | 77 | 87 |  |  |  |
| Oc1cc2ccncc2cc1-c1ccc(O[C@@H]2C[C@H]3CCC[C@H](N3)[C@@H]2F)nn1 (single isomer, unassigned) [81-ENT1] | 501 to 10000 | 3 | 7.34 | 22.8 | 69 | 77 |  |  |  |
| Cc1nocc1-c1ccc(-c2ccc(O[C@H]3C[C@@H]4CCC[C@@H](N4)[C@H]3F)nn2)c(O)c1 (single isomer, unassigned) [72-ENT1] | 101 to 500 |  |  |  | 74 | 93 | 9 | 5.74 10^−6, cm/s | 51 10^−6, cm/s |
